Laboratory results from the OligoGym collection.
HELM strings list units from the 5' end as sugar, base in round brackets, then linkage (d deoxyribose, r ribose, m 2'-O-methyl, p phosphodiester). Strings are as the collection lists them; they lack the last nucleoside at the 3' end of the tested compound. [moe] = 2'-O-(2-methoxyethyl) (MOE); [sp] = phosphorothioate linkage; [m5C] = 5-methylcytosine

Molecular target: PRNP
Assay: mouse, dose not given
Conditions: ASO

Row | Substance | 3 h FOB score [score 0-7]
1 | RNA1{[moe]([m5C])[sp].[moe](T)p.[moe]([m5C])p.[moe](T)p.[moe](A)[sp].d(T)[sp].d(G)[sp].d(T)[sp].d(T)[sp].d(T)[sp].d(T)[sp].d([m5C])[sp].d([m5C])[sp].d(A)[sp].d(G)[sp].[moe](T)p.[moe](G)p.[moe]([m5C])[sp].[moe]([m5C])}$$$$ (last 3' nucleoside missing) | 1
2 | RNA1{[moe]([m5C])[sp].[moe](T)p.[moe]([m5C])p.[moe](T)p.[moe](A)p.[moe](T)p.d(G)[sp].d(T)[sp].d(T)[sp].d(T)[sp].d(T)[sp].d([m5C])[sp].d([m5C])[sp].d(A)[sp].d(G)[sp].d(T)[sp].[moe](G)p.[moe]([m5C])[sp].[moe]([m5C])}$$$$ (last 3' nucleoside missing) | 2
3 | RNA1{[moe]([m5C])[sp].[moe](T)p.[moe]([m5C])p.[moe](T)p.[moe](A)p.d(T)[sp].d(G)[sp].d(T)[sp].d(T)[sp].d(T)[sp].d(T)[sp].d([m5C])[sp].d([m5C])[sp].d(A)[sp].[moe](G)[sp].[moe](T)p.[moe](G)p.[moe]([m5C])}$$$$ (last 3' nucleoside missing) | 1
4 | RNA1{[moe]([m5C])[sp].[moe](T)p.[moe]([m5C])p.[moe](T)p.[moe](A)p.d(T)[sp].d(G)[sp].d(T)[sp].d(T)[sp].d(T)[sp].d(T)[sp].d([m5C])[sp].d([m5C])[sp].d(A)[sp].[moe](G)p.[moe](T)p.[moe](G)[sp].[moe]([m5C])}$$$$ (last 3' nucleoside missing) | 0.25
5 | RNA1{[moe]([m5C])[sp].[moe](T)p.[moe]([m5C])p.[moe](T)p.d(A)[sp].d(T)[sp].d(G)[sp].d(T)[sp].d(T)[sp].d(T)[sp].d(T)[sp].d([m5C])[sp].d([m5C])[sp].d(A)[sp].[moe](G)p.[moe](T)p.[moe](G)p.[moe]([m5C])[sp].[moe]([m5C])}$$$$ (last 3' nucleoside missing) | 3.25
6 | RNA1{[moe]([m5C])[sp].[moe](T)p.[moe]([m5C])p.d(T)[sp].d(A)[sp].d(T)[sp].d(G)[sp].d(T)[sp].d(T)[sp].d(T)[sp].d(T)[sp].d([m5C])[sp].d([m5C])[sp].[moe](A)p.[moe](G)p.[moe](T)p.[moe](G)p.[moe]([m5C])[sp].[moe]([m5C])}$$$$ (last 3' nucleoside missing) | 3
7 | RNA1{[moe]([m5C])[sp].[moe]([m5C])p.[moe](A)p.[moe](G)p.[moe](A)[sp].d(A)[sp].d(G)[sp].d(T)[sp].d(T)[sp].d(T)[sp].d(A)[sp].d(A)[sp].d([m5C])[sp].d(A)[sp].d(T)[sp].[moe](A)p.[moe](T)p.[moe](T)[sp].[moe](T)}$$$$ (last 3' nucleoside missing) | 0
8 | RNA1{[moe]([m5C])[sp].[moe]([m5C])p.[moe](A)p.[moe](G)p.[moe](A)[sp].d(G)[sp].d(G)[sp].d(T)[sp].d(T)[sp].d([m5C])[sp].d(A)[sp].d(G)[sp].d(T)[sp].d(G)[sp].d(T)[sp].[moe](T)p.[moe](G)p.[moe](T)[sp].[moe](G)}$$$$ (last 3' nucleoside missing) | 6.25
9 | RNA1{[moe]([m5C])[sp].[moe]([m5C])p.[moe](A)p.[moe](T)p.[moe](T)[sp].d(T)[sp].d(T)[sp].d([m5C])[sp].d(T)[sp].d(G)[sp].d(T)[sp].d(G)[sp].d([m5C])[sp].d(T)[sp].d(T)[sp].[moe](T)p.[moe](T)p.[moe]([m5C])[sp].[moe]([m5C])}$$$$ (last 3' nucleoside missing) | 4
10 | RNA1{[moe]([m5C])[sp].[moe]([m5C])p.[moe](A)p.[moe]([m5C])p.[moe](A)[sp].d(T)[sp].d(A)[sp].d(T)[sp].d(A)[sp].d(G)[sp].d(G)[sp].d(G)[sp].d(T)[sp].d([m5C])[sp].d([m5C])[sp].[moe](T)p.[moe](T)p.[moe](T)[sp].[moe](A)}$$$$ (last 3' nucleoside missing) | 1.5
11 | RNA1{[moe]([m5C])[sp].[moe]([m5C])p.[moe](G)p.[moe](T)p.[moe](T)[sp].d([m5C])[sp].d(A)[sp].d(T)[sp].d([m5C])[sp].d(T)[sp].d(T)[sp].d(A)[sp].d(T)[sp].d(T)[sp].d([m5C])[sp].[moe]([m5C])p.[moe]([m5C])p.[moe](A)[sp].[moe](T)}$$$$ (last 3' nucleoside missing) | 0
12 | RNA1{[moe]([m5C])[sp].[moe]([m5C])p.[moe](T)p.[moe](G)p.[moe](T)[sp].d(T)[sp].d(A)[sp].d(A)[sp].d(T)[sp].d(G)[sp].d(G)[sp].d(T)[sp].d(G)[sp].d(T)[sp].d([m5C])[sp].[moe]([m5C])p.[moe](A)p.[moe]([m5C])[sp].[moe](T)}$$$$ (last 3' nucleoside missing) | 2.5
13 | RNA1{[moe]([m5C])[sp].[moe]([m5C])p.[moe](T)p.[moe](T)p.[moe](T)[sp].d([m5C])[sp].d(A)[sp].d(T)[sp].d(A)[sp].d(T)[sp].d(A)[sp].d(T)[sp].d(G)[sp].d(T)[sp].d(T)[sp].[moe](A)p.[moe]([m5C])p.[moe](A)[sp].[moe](G)}$$$$ (last 3' nucleoside missing) | 5
14 | RNA1{[moe]([m5C])[sp].[moe]([m5C])p.[moe]([m5C])p.[moe](A)p.[moe](G)[sp].d(T)[sp].d(G)[sp].d(T)[sp].d(T)[sp].d([m5C])[sp].d([m5C])[sp].d(A)[sp].d(T)[sp].d([m5C])[sp].d([m5C])[sp].[moe](T)p.[moe]([m5C])p.[moe]([m5C])[sp].[moe](A)}$$$$ (last 3' nucleoside missing) | 2
15 | RNA1{[moe]([m5C])[sp].[moe]([m5C])p.[moe]([m5C])p.[moe]([m5C])p.[moe](A)[sp].d(G)[sp].d(T)[sp].d(G)[sp].d(T)[sp].d(T)[sp].d([m5C])[sp].d([m5C])[sp].d(A)[sp].d(T)[sp].d([m5C])[sp].[moe]([m5C])p.[moe](T)p.[moe]([m5C])[sp].[moe]([m5C])}$$$$ (last 3' nucleoside missing) | 0
